Common to all, as to type: cell-based, human
Assay [1] has as its system SEMK2 cells. Description: Caspase 3 activity assay, SEMK2. As to conditions: 1 μM, 24 hr, ratio vs DMSO. As for the experimental part: (§1) At each time point, the cells were subjected to MTT assay (left), Caspase 3 activity assay (middle) and FACS analysis (right). The results of MTT and Caspase 3 activity assays are calculated as a ratio against the value for DMSO-treated cells. Vertical bar in each column indicates standard deviation determined by triplicate assays.
(§2) To determine the cause for the reduction in cell numbers, the 5-ITU-treated cells were subjected to assays determining apoptotic cell death (caspase 3 activity assay and FACS analysis).
(§3) Methods including Recombinant protein expression in K562 and in KG1 cells, RNA interference, Western blot analysis, and MTT assay, Caspase 3 Activity assay and FACS analysis are available in online Supporting Information.

The next assay relates to 380 cells. As to the kind of experiment: MTT assay, 380. As to conditions: 380 control cells lacking ALL1 abnormality; 1 μM; 24, 48 and 72 hr. As for the experimental part: as §1, §3
On the technique in general: Tetrazolium assays rely on reduction of a dye to a coloured formazan, in cell work by metabolically active cells.

In assay [2] the test system is SEMK2 cells. Description: MTT assay, SEMK2. As to conditions: SEMK2, t(4;11); 1 μM; 24, 48 and 72 hr; ratio vs DMSO. As for the experimental part: as §1, §3
In assay [3] the test system is RS4;11 cells. As to the kind of experiment: MTT assay, RS4;11. As to conditions: RS4;11, t(4;11); 1 μM; 24, 48 and 72 hr; ratio vs DMSO. As for the experimental part: as §1, §3
Assay [4] deals with SEMK2 cells. Description: FACS analysis (subG1), SEMK2. The settings on record: 1 μM. The protocol: as §1, §2, §3
The test system of assay [5] is RS4;11 cells. As to the kind of experiment: Caspase 3 activity assay, RS4;11. The settings on record: 1 μM, 24 hr, ratio vs DMSO. As for the experimental part:
as §1, §2, §3

The subject of the next assay is 697 cells. As to the kind of experiment: MTT assay, 697. As to conditions: 697 control cells lacking ALL1 abnormality; 1 μM; 24, 48 and 72 hr. As for the experimental part:
as §1, §3

For assay [6], the system named is RS4;11 cells. Description: FACS analysis (subG1), RS4;11. The settings on record: 1 μM. The protocol: as §1, §2, §3

With `Nc1ncnc2c1c(I)cn2[C@@H]1O[C@H](CO)[C@@H](O)[C@H]1O` [5-ITU, 5-iodotubercidin], the “caspase 3 activity” value with SEMK2 cells [1] and with RS4;11 cells [5] was “Increased caspase 3 activity” in each case. The “cell number (MTT assay)” value is recorded as “no diminution in the number” in the assay on 380 cells, “reduction in numbers” with SEMK2 cells [2], “reduction in numbers” with RS4;11 cells [3] and “no diminution in the number” with 697 cells. The “cells at the subG1 phase (FACS)” value with SEMK2 cells [4] and in the assay with RS4;11 cells [6] was “high proportion” in each case.

These data come from patent US9297012B2, “Methods and compositions for inducing deregulation of EPHA7 and ERK phosphorylation in human acute leukemias” (The Ohio State University Research Foundation, priority 2007, dated 2016).
